The values below come from ChEMBL document CHEMBL3044922, “N 1-{4-[(10S)-Dihydroartemisinin-10-oxyl]}phenylmethylene-N 2-(2-methylquinoline-4-yl)hydrazine derivatives as antiplasmodial falcipain-2 inhibitors” (Med Chem Res, 2012).

Test [1] has as its target T1, Falcipain 2 (Plasmodium falciparum) (UniProt Q9N6S8).
T1 sequence (whole entry): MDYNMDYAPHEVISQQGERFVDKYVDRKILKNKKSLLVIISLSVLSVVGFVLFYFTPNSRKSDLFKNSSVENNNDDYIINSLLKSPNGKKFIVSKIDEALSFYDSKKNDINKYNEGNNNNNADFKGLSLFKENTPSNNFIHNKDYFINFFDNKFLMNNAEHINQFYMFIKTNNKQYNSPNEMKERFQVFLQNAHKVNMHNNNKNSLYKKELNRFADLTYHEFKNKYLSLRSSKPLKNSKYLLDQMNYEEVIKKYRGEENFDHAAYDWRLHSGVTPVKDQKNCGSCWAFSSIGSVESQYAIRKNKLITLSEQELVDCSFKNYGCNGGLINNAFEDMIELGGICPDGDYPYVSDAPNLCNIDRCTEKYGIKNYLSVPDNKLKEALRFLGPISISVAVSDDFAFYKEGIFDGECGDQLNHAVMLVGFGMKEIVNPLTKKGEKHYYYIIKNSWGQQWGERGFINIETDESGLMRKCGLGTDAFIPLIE
Description: Inhibition of Plasmodium falciparum recombinant falcipain 2 expressed in Escherichia coli using Z-Leu-Arg-AMC as substrate at 10 uM incubated for 30 min prior to substrate addition measured for 30 min by fluorometric analysis.

The target of another test is T2, Falcipain 2 (Plasmodium falciparum, UniProt Q9N6S8).
T2 sequence (Q9N6S8 whole entry): T1 sequence (whole entry)
Description: Inhibition of Plasmodium falciparum recombinant falcipain 2 expressed in Escherichia coli using Z-Leu-Arg-AMC as substrate incubated for 30 min prior to substrate addition measured for 30 min by fluorometric analysis.

pIC50: −log10 of the molar value.

For `Cc1cc(N/N=C/c2ccc(O[C@H]3O[C@@H]4O[C@@]5(C)CC[C@H]6[C@H](C)CC[C@@H]([C@H]3C)[C@@]46OO5)cc2)c2cc(Cl)ccc2n1`, in test [1], the inhibition – broadly, how much of the control response was suppressed – came to 88.2%. Further, the negative-log IC50 (pIC50) – broadly, the IC50 on a negative log10 scale, so that one unit is a factor of ten – at Falcipain 2 was 6.82.

Take `COc1ccc2nc(C)cc(N/N=C/c3ccc(O[C@H]4O[C@@H]5O[C@@]6(C)CC[C@H]7[C@H](C)CC[C@@H]([C@H]4C)[C@@]57OO6)cc3)c2c1`: the inhibition in test [1] amounted to 93.7%. Besides, the pIC50 at Falcipain 2 is 6.54.

Turning to `Cc1cc(N/N=C/c2ccc(O[C@H]3O[C@@H]4O[C@@]5(C)CC[C@H]6[C@H](C)CC[C@@H]([C@H]3C)[C@@]46OO5)cc2)c2ccc(Cl)c(C)c2n1`, in test [1], the inhibition came out at 82.6%. Further, at Falcipain 2, the negative-log IC50 (pIC50) is 6.68.

On to `Cc1cc(N/N=C/c2ccc(O[C@H]3O[C@@H]4O[C@@]5(C)CC[C@H]6[C@H](C)CC[C@@H]([C@H]3C)[C@@]46OO5)cc2)c2cc(F)ccc2n1`, for which the inhibition in test [1] stood at 88.6%. The pIC50 on Falcipain 2 is 6.17.

For the molecule `Cc1cc(N/N=C/c2ccc(O[C@H]3O[C@@H]4O[C@@]5(C)CC[C@H]6[C@H](C)CC[C@@H]([C@H]3C)[C@@]46OO5)cc2)c2cccc(F)c2n1`, the inhibition in test [1] was 84.7%. In addition, the negative logarithm of the IC50 (pIC50) on Falcipain 2 is 6.55.

With `CC(C)C[C@H](NC(=O)[C@H]1O[C@@H]1C(=O)O)C(=O)NCCCCN=C(N)N` [E-64], the inhibition in test [1] stood at 92%. Also, at Falcipain 2, the pIC50 is 7.70.

Turning to `Cc1cc(N/N=C/c2ccc(O[C@H]3O[C@@H]4O[C@@]5(C)CC[C@H]6[C@H](C)CC[C@@H]([C@H]3C)[C@@]46OO5)cc2)c2ccccc2n1`, in test [1], the inhibition was found to be 94.1%. The pIC50 on Falcipain 2 is 6.05.

On to `Cc1ccc2nc(C)cc(N/N=C/c3ccc(O[C@H]4O[C@@H]5O[C@@]6(C)CC[C@H]7[C@H](C)CC[C@@H]([C@H]4C)[C@@]57OO6)cc3)c2c1`, for which the inhibition in test [1] is 87.2%. In addition, at Falcipain 2, the pIC50 is 6.11.

Consider `Cc1cc(N/N=C/c2ccc(O[C@H]3O[C@@H]4O[C@@]5(C)CC[C@H]6[C@H](C)CC[C@@H]([C@H]3C)[C@@]46OO5)cc2)c2c(Cl)ccc(C)c2n1`, for which, in test [1], the inhibition amounted to 79.4%. In addition, the pIC50 at Falcipain 2 is 6.41.

On to `Cc1cc(N/N=C/c2ccc(O[C@H]3O[C@@H]4O[C@@]5(C)CC[C@H]6[C@H](C)CC[C@@H]([C@H]3C)[C@@]46OO5)cc2)c2cccc(Br)c2n1`, for which the inhibition in test [1] is 94.1%. Moreover, the negative-log IC50 (pIC50) on Falcipain 2 is 6.08.

For the molecule `Cc1cc(N/N=C/c2ccc(O[C@H]3O[C@@H]4O[C@@]5(C)CC[C@H]6[C@H](C)CC[C@@H]([C@H]3C)[C@@]46OO5)cc2)c2cc(Br)ccc2n1`, the inhibition in test [1] was found to be 89.8%. At Falcipain 2, the pIC50 is 6.59.

As for `Cc1cc(N/N=C/c2ccc(O[C@H]3O[C@@H]4O[C@@]5(C)CC[C@H]6[C@H](C)CC[C@@H]([C@H]3C)[C@@]46OO5)cc2)c2cccc(C)c2n1`, the inhibition in test [1] is 84.3%. Also, the pIC50 at Falcipain 2 is 5.64.

On to `Cc1cc(N/N=C/c2ccc(O[C@H]3O[C@@H]4O[C@@]5(C)CC[C@H]6[C@H](C)CC[C@@H]([C@H]3C)[C@@]46OO5)cc2)c2ccc(Cl)cc2n1`, for which the inhibition in test [1] was 88.4%. Also, the pIC50 on Falcipain 2 is 6.77.

As to `Cc1cc(N/N=C/c2ccc(O[C@H]3O[C@@H]4O[C@@]5(C)CC[C@H]6[C@H](C)CC[C@@H]([C@H]3C)[C@@]46OO5)cc2)c2ccc(C)c(C)c2n1`, the inhibition in test [1] worked out at 79.4%. In addition, the pIC50 at Falcipain 2 was 6.08.

`CCc1cccc2c(N/N=C/c3ccc(O[C@H]4O[C@@H]5O[C@@]6(C)CC[C@H]7[C@H](C)CC[C@@H]([C@H]4C)[C@@]57OO6)cc3)cc(C)nc12`: the inhibition in test [1] is 85.1%. For the same molecule, the pIC50 on Falcipain 2 is 6.28.
